Experimental data: patent US8247211B2, “Glycopeptide antibiotics” (American Cyanamid Company, priority 2001, dated 2012)
Converted amounts (≈) assume the structure as drawn.

What was measured:
Experiment in all cases: In vitro antibacterial evaluation: minimum inhibitory concentration (MIC), broth dilution method
Assay type in all cases: cell-based
[1] = test system: Streptococcus sp.; settings: 18 hours at 35° C.
Procedure, shortened: (§1)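 MIC read as lowest drug level preventing visible growth. Organisms at 5×10^5 CFU/mL were exposed to a 64-0.06 μg/mL dilution series in Muller-Hinton II […] following NCCLS broth dilution standard M7-A2.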

[2] = test system: Enterococcus sp.; settings: 18 hours at 35° C.
Procedure, shortened: as §1

[3] = test system: Staphylococcus sp.
Procedure, shortened: as §1

[4] = test system: Escherichia coli; settings: 18 hours at 35° C.
Procedure, shortened: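 Susceptibility determined by NCCLS-recommended broth dilution (M7-A2), Muller-Hinton II […]. Concentration span 64-0.06 μg/mL, inoculum 5×10^5 CFU/mL. Isolates include strains resistant to methicillin, penicillin and/or vancomycin.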

[5] = broth dilution, inoculum 5×10^5 CFU/mL

## CC(c1ccccc1)C1NC(=O)CNC(=O)C(CO)NC(=O)C(C(O)C2CNC(=N)N2C2OC(CO)C(O)C(O)C2O)NC(=O)C(C(O)C2CNC(=N)N2)NC(=O)C(Cc2ccc(OC3OC(CO)C(OC4OC5COC(c6cccc(Oc7cccc(C(F)(F)F)c7)c6)OC5C(O)C4O)C(O)C3O)cc2)NC1=O (stereo not shown) [Example 184]
[1]; Streptococcus agalactiae (GC 4564)
  MIC Streptococcus agalactiae (GC 4564): 0.12 µg/mL (≈ 0.0777 µM)
[1]; Streptococcus pneumoniae (ATCC 6301)
  MIC Streptococcus pneumoniae (ATCC 6301): <0.06 µg/mL
[1]; Streptococcus pneumoniae (GC 1894)
  MIC Streptococcus pneumoniae (GC 1894): <0.06 µg/mL
[1]; Streptococcus pneumoniae (GC 4565)
  MIC Streptococcus pneumoniae (GC 4565): <0.06 µg/mL
[1]; Streptococcus pyogenes (GC 4563)
  MIC Streptococcus pyogenes (GC 4563): 0.25 µg/mL (≈ 0.162 µM)
[1]; [5]
  MIC Streptococcus agalactiae (GC 4564): 0.12 µg/mL (≈ 0.0777 µM)
  MIC Streptococcus pneumoniae (ATCC 6301): <0.06 µg/mL
  MIC Streptococcus pneumoniae (GC 1894): <0.06 µg/mL
  MIC Streptococcus pneumoniae (GC 4565): <0.06 µg/mL
  MIC Streptococcus pyogenes (GC 4563): 0.25 µg/mL (≈ 0.162 µM)
[2]; Enterococcus avium (GC 4558)
  MIC Enterococcus avium (GC 4558): 32 µg/mL (≈ 20.7 µM)
[2]; Enterococcus faecalis (ATCC 29212)
  MIC Enterococcus faecalis (ATCC 29212): 32 µg/mL (≈ 20.7 µM)
[2]; Enterococcus faecalis (GC 2242)
  MIC Enterococcus faecalis (GC 2242): 32 µg/mL (≈ 20.7 µM)
[2]; Enterococcus faecalis (GC 2691)
  MIC Enterococcus faecalis (GC 2691): 32 µg/mL (≈ 20.7 µM)
[2]; Enterococcus faecalis (GC 3059)
  MIC Enterococcus faecalis (GC 3059): 32 µg/mL (≈ 20.7 µM)
[2]; Enterococcus faecalis (GC 4552)
  MIC Enterococcus faecalis (GC 4552): 32 µg/mL (≈ 20.7 µM)
[2]; Enterococcus faecalis (GC 4553)
  MIC Enterococcus faecalis (GC 4553): 16 µg/mL (≈ 10.4 µM)
[2]; Enterococcus faecalis (GC 4554)
  MIC Enterococcus faecalis (GC 4554): 32 µg/mL (≈ 20.7 µM)
[2]; Enterococcus faecalis (GC 6189)
  MIC Enterococcus faecalis (GC 6189): 32 µg/mL (≈ 20.7 µM)
[2]; Enterococcus faecium (GC 2243)
  MIC Enterococcus faecium (GC 2243): 16 µg/mL (≈ 10.4 µM)
[2]; Enterococcus faecium (GC 4556)
  MIC Enterococcus faecium (GC 4556): 32 µg/mL (≈ 20.7 µM)
[2]; Enterococcus faecium (GC 4557)
  MIC Enterococcus faecium (GC 4557): 32 µg/mL (≈ 20.7 µM)
[2]; [5]
  MIC Enterococcus avium (GC 4558): 32 µg/mL (≈ 20.7 µM)
  MIC Enterococcus faecalis (ATCC 29212): 32 µg/mL (≈ 20.7 µM)
  MIC Enterococcus faecalis (GC 2242): 32 µg/mL (≈ 20.7 µM)
  MIC Enterococcus faecalis (GC 2691): 32 µg/mL (≈ 20.7 µM)
  MIC Enterococcus faecalis (GC 3059): 32 µg/mL (≈ 20.7 µM)
  MIC Enterococcus faecalis (GC 4552): 32 µg/mL (≈ 20.7 µM)
  MIC Enterococcus faecalis (GC 4553): 16 µg/mL (≈ 10.4 µM)
  MIC Enterococcus faecalis (GC 4554): 32 µg/mL (≈ 20.7 µM)
  MIC Enterococcus faecalis (GC 6189): 32 µg/mL (≈ 20.7 µM)
  MIC Enterococcus faecium (GC 2243): 16 µg/mL (≈ 10.4 µM)
  MIC Enterococcus faecium (GC 4556): 32 µg/mL (≈ 20.7 µM)
  MIC Enterococcus faecium (GC 4557): 32 µg/mL (≈ 20.7 µM)
[3]; strain ATCC 29213
  MIC Staphylococcus aureus (ATCC 29213): 32 µg/mL (≈ 20.7 µM)
[3]; strain GC 1131
  MIC Staphylococcus aureus (GC 1131): 32 µg/mL (≈ 20.7 µM)
[3]; strain GC 3051
  MIC Staphylococcus aureus (GC 3051): 32 µg/mL (≈ 20.7 µM)
[3]; strain GC 3053
  MIC Staphylococcus aureus (GC 3053): 32 µg/mL (≈ 20.7 µM)
[3]; strain GC 4541
  MIC Staphylococcus aureus (GC 4541): 32 µg/mL (≈ 20.7 µM)
[3]; strain GC 4542
  MIC Staphylococcus aureus (GC 4542): 32 µg/mL (≈ 20.7 µM)
[3]; strain GC 4543
  MIC Staphylococcus aureus-SMITH (GC 4543): 32 µg/mL (≈ 20.7 µM)
[3]; strain GC 4544
  MIC Staphylococcus aureus (GC 4544): 32 µg/mL (≈ 20.7 µM)
[3]; strain GC 4545
  MIC Staphylococcus aureus (GC 4545): 32 µg/mL (≈ 20.7 µM)
[3]; strain GC 4546
  MIC Staphylococcus haemolyticus (GC 4546): 32 µg/mL (≈ 20.7 µM)
[3]; strain GC 4547
  MIC Coagulase Negative Staphylococcus (GC 4547): 32 µg/mL (≈ 20.7 µM)
[3]; strain GC 4548
  MIC Coagulase Negative Staphylococcus (GC 4548): 16 µg/mL (≈ 10.4 µM)
[3]; strain GC 4549
  MIC Coagulase Negative Staphylococcus (GC 4549): 32 µg/mL (≈ 20.7 µM)
[3]; strain GC 4551
  MIC Coagulase Negative Staphylococcus (GC 4551): 32 µg/mL (≈ 20.7 µM)
[3]; strain GC 6257
  MIC Coagulase Negative Staphylococcus (GC 6257): 16 µg/mL (≈ 10.4 µM)
[4]; Escherichia coli (ATCC 25922)
  MIC Escherichia coli (ATCC 25922): >64 µg/mL
[4]; Escherichia coli (GC 4559)
  MIC Escherichia coli (GC 4559): >64 µg/mL
[4]; Escherichia coli (GC 4560)
  MIC Escherichia coli (GC 4560): 32 µg/mL (≈ 20.7 µM)
